Tests used:
ISC-enriched organoids [1] = assay: Primary screen, 384-well 2.5-D organoid differentiation (ENR+CD, 6 days): basal lysozyme secretion (LYZ.NS); type: cell-based, murine; settings: primary screen; for Dose.FC.LYZ.NS: FC vs plate median; for Z.LYZ.NS: standard z score; for SSMD.LYZ.NS: strictly standardized mean difference
From the text: (§1) High-throughput screening.

ISC-enriched organoids [2] = assay: Primary screen, 384-well 2.5-D organoid differentiation (ENR+CD, 6 days): carbachol-induced lysozyme secretion (LYZ.S); type: cell-based, murine; settings: primary screen; for Dose.FC.LYZ.S: FC vs plate median; for Z.LYZ.S: standard z score; for SSMD.LYZ.S: strictly standardized mean difference
From the text: as §1

ISC-enriched organoids [3] = assay: Primary screen, 384-well 2.5-D organoid differentiation (ENR+CD, 6 days, Target Selective Inhibitor Library, vs whole-plate median): ATP (CellTiter-Glo 3D, CTG); settings: primary screen; for Dose.FC.CTG: FC vs plate median; for Z.CTG: standard z score; for SSMD.CTG: strictly standardized mean difference
[4] = 1st of the 4 dose lines of the treatment (dose not given)
[5] = 2nd of the 4 dose lines of the treatment (dose not given)
[6] = 3rd of the 4 dose lines of the treatment (dose not given)
[7] = 4th of the 4 dose lines of the treatment (dose not given)

## O=C(O)CCc1ccc(NCc2cccc(Oc3ccccc3)c2)cc1 [GW9508]
ISC-enriched organoids [1]; Dose 0.08 uM
  Dose.FC.LYZ.NS: 0.075 log 2 fold change
  Z.LYZ.NS: 0.650
ISC-enriched organoids [1]; Dose 0.40 uM
  Dose.FC.LYZ.NS: 0.019 log 2 fold change
  Z.LYZ.NS: 0.169
ISC-enriched organoids [1]; Dose 2.00 uM
  Dose.FC.LYZ.NS: −0.011 log 2 fold change
  Z.LYZ.NS: −0.092
ISC-enriched organoids [1]; Dose 10.00 uM
  Dose.FC.LYZ.NS: −0.040 log 2 fold change
  Z.LYZ.NS: −0.350
ISC-enriched organoids [1]; [4]
  SSMD.LYZ.NS: 0.536
ISC-enriched organoids [1]; [5]
  SSMD.LYZ.NS: 0.122
ISC-enriched organoids [1]; [6]
  SSMD.LYZ.NS: −0.064
ISC-enriched organoids [1]; [7]
  SSMD.LYZ.NS: −0.358
ISC-enriched organoids [2]; Dose 0.08 uM
  Dose.FC.LYZ.S: 0.067 log 2 fold change
ISC-enriched organoids [2]; Dose 0.40 uM
  Dose.FC.LYZ.S: 0.049 log 2 fold change
ISC-enriched organoids [2]; Dose 2.00 uM
  Dose.FC.LYZ.S: 0.000 log 2 fold change
ISC-enriched organoids [2]; Dose 10.00 uM
  Dose.FC.LYZ.S: −0.045 log 2 fold change
ISC-enriched organoids [2]; [4]
  Z.LYZ.S: 0.434
  SSMD.LYZ.S: 0.329
ISC-enriched organoids [2]; [5]
  Z.LYZ.S: 0.316
  SSMD.LYZ.S: 0.225
ISC-enriched organoids [2]; [6]
  Z.LYZ.S: 0.003
  SSMD.LYZ.S: 0.002
ISC-enriched organoids [2]; [7]
  Z.LYZ.S: −0.289
  SSMD.LYZ.S: −0.176
ISC-enriched organoids [3]; Dose 0.08 uM
  Dose.FC.CTG: 0.063 log 2 fold change
  Z.CTG: 0.151
ISC-enriched organoids [3]; Dose 0.40 uM
  Dose.FC.CTG: 0.174 log 2 fold change
  Z.CTG: 0.417
ISC-enriched organoids [3]; Dose 2.00 uM
  Dose.FC.CTG: −0.001 log 2 fold change
  Z.CTG: −0.003
ISC-enriched organoids [3]; Dose 10.00 uM
  Dose.FC.CTG: −0.059 log 2 fold change
  Z.CTG: −0.140
ISC-enriched organoids [3]; [4]
  SSMD.CTG: 0.128
ISC-enriched organoids [3]; [5]
  SSMD.CTG: 0.384
ISC-enriched organoids [3]; [6]
  SSMD.CTG: −0.003
ISC-enriched organoids [3]; [7]
  SSMD.CTG: −0.134

## O=C(Nc1ccccc1)c1cc([N+](=O)[O-])ccc1Cl [GW9662]
ISC-enriched organoids [1]; Dose 0.08 uM
  Dose.FC.LYZ.NS: 0.035 log 2 fold change
  Z.LYZ.NS: 0.305
ISC-enriched organoids [1]; Dose 0.40 uM
  Dose.FC.LYZ.NS: 0.098 log 2 fold change
  Z.LYZ.NS: 0.852
ISC-enriched organoids [1]; Dose 2.00 uM
  Dose.FC.LYZ.NS: 0.046 log 2 fold change
  Z.LYZ.NS: 0.400
ISC-enriched organoids [1]; Dose 10.00 uM
  Dose.FC.LYZ.NS: 0.030 log 2 fold change
  Z.LYZ.NS: 0.264
ISC-enriched organoids [1]; [4]
  SSMD.LYZ.NS: 0.272
ISC-enriched organoids [1]; [5]
  SSMD.LYZ.NS: 0.722
ISC-enriched organoids [1]; [6]
  SSMD.LYZ.NS: 0.336
ISC-enriched organoids [1]; [7]
  SSMD.LYZ.NS: 0.282
ISC-enriched organoids [2]; Dose 0.08 uM
  Dose.FC.LYZ.S: 0.036 log 2 fold change
ISC-enriched organoids [2]; Dose 0.40 uM
  Dose.FC.LYZ.S: 0.080 log 2 fold change
ISC-enriched organoids [2]; Dose 2.00 uM
  Dose.FC.LYZ.S: 0.093 log 2 fold change
ISC-enriched organoids [2]; Dose 10.00 uM
  Dose.FC.LYZ.S: 0.020 log 2 fold change
ISC-enriched organoids [2]; [4]
  Z.LYZ.S: 0.235
  SSMD.LYZ.S: 0.218
ISC-enriched organoids [2]; [5]
  Z.LYZ.S: 0.520
  SSMD.LYZ.S: 0.534
ISC-enriched organoids [2]; [6]
  Z.LYZ.S: 0.599
  SSMD.LYZ.S: 0.571
ISC-enriched organoids [2]; [7]
  Z.LYZ.S: 0.131
  SSMD.LYZ.S: 0.149
ISC-enriched organoids [3]; Dose 0.08 uM
  Dose.FC.CTG: 0.115 log 2 fold change
  Z.CTG: 0.274
ISC-enriched organoids [3]; Dose 0.40 uM
  Dose.FC.CTG: 0.041 log 2 fold change
  Z.CTG: 0.098
ISC-enriched organoids [3]; Dose 2.00 uM
  Dose.FC.CTG: 0.212 log 2 fold change
  Z.CTG: 0.508
ISC-enriched organoids [3]; Dose 10.00 uM
  Dose.FC.CTG: 0.133 log 2 fold change
  Z.CTG: 0.318
ISC-enriched organoids [3]; [4]
  SSMD.CTG: 0.301
ISC-enriched organoids [3]; [5]
  SSMD.CTG: 0.117
ISC-enriched organoids [3]; [6]
  SSMD.CTG: 0.715
ISC-enriched organoids [3]; [7]
  SSMD.CTG: 0.378

## Cn1cc(/C=C2\C(=O)Nc3cccnc32)c2ccccc21 [GW441756]
ISC-enriched organoids [1]; Dose 0.08 uM
  Dose.FC.LYZ.NS: 0.046 log 2 fold change
  Z.LYZ.NS: 0.399
ISC-enriched organoids [1]; Dose 0.40 uM
  Dose.FC.LYZ.NS: 0.061 log 2 fold change
  Z.LYZ.NS: 0.529
ISC-enriched organoids [1]; Dose 2.00 uM
  Dose.FC.LYZ.NS: 0.117 log 2 fold change
  Z.LYZ.NS: 1.023
ISC-enriched organoids [1]; Dose 10.00 uM
  Dose.FC.LYZ.NS: 0.088 log 2 fold change
  Z.LYZ.NS: 0.763
ISC-enriched organoids [1]; [6]
  SSMD.LYZ.NS: 1.215
ISC-enriched organoids [1]; [7]
  SSMD.LYZ.NS: 0.357
ISC-enriched organoids [2]; Dose 0.08 uM
  Dose.FC.LYZ.S: 0.075 log 2 fold change
ISC-enriched organoids [2]; Dose 0.40 uM
  Dose.FC.LYZ.S: 0.196 log 2 fold change
ISC-enriched organoids [2]; Dose 2.00 uM
  Dose.FC.LYZ.S: 0.125 log 2 fold change
ISC-enriched organoids [2]; Dose 10.00 uM
  Dose.FC.LYZ.S: 0.071 log 2 fold change
ISC-enriched organoids [2]; [6]
  Z.LYZ.S: 0.806
  SSMD.LYZ.S: 0.911
ISC-enriched organoids [2]; [7]
  Z.LYZ.S: 0.458
  SSMD.LYZ.S: 0.449
ISC-enriched organoids [3]; Dose 0.08 uM
  Dose.FC.CTG: 0.048 log 2 fold change
  Z.CTG: 0.114
ISC-enriched organoids [3]; Dose 0.40 uM
  Dose.FC.CTG: −0.105 log 2 fold change
  Z.CTG: −0.252
ISC-enriched organoids [3]; Dose 2.00 uM
  Dose.FC.CTG: 0.152 log 2 fold change
  Z.CTG: 0.364
ISC-enriched organoids [3]; Dose 10.00 uM
  Dose.FC.CTG: −0.113 log 2 fold change
  Z.CTG: −0.270
ISC-enriched organoids [3]; [6]
  SSMD.CTG: 0.468
ISC-enriched organoids [3]; [7]
  SSMD.CTG: −0.350
